Source: patent US10975069B2, “Sigma-2 receptor ligand drug conjugates as antitumor compounds, methods of synthesis and uses thereof” (priority 2014, dated 2021)
Several values for one entry are separate records, joined by “and”; a condition that tells them apart may be missing. Equal values may be shown once.

Columns and labels:
[1] = Toxicity study (necropsy, CBC, clinical chemistry) in tumor bearing mice; assay type: in vivo, C57BL/6 mice
Method: Six adult female mice were submitted to necropsy. The strain designation of the mice was C57BL/6. […]
Animal studies were performed according to the animal studies protocol approved by Washington University Institutional Animal Care Facility. In vivo studies with mice were performed to compare the effects of SW V-49s, SV119. Erastin, a combination of SV119 with Erastin, and vehicle. […] C57BL/6 mice (6 weeks old. National Cancer Institute Laboratories) were injected in the right flank with 200 μL single cell suspension of KCKO cells in RPMI medium (25×10^4/10^5 cells per mouse). Mice were randomized into four groups (n=15). Treatment was started when the mean tumor diameter was ^˜5 mm. […] Erastin, equimolar mix of SV119 and Erastin. Tumors were measured every other day with a digital caliper. Several mice from different treatment groups were sent to the Division of Comparative Medicine in our institution for pathologic evaluation. Blood was collected for complete blood count (CBC) and biochemical analysis (AST, ALT, BUN, total bilirubin, and Cr). Organs were examined grossly and histologically.

[2] = system: KCKO mouse pancreatic tumors; assay: Syngeneic subcutaneous KCKO pancreatic tumor model; assay type: in vivo, C57BL/6 mice
Source text: FIG. 7 illustrates changes in mean tumor volume (in mm^3) following administration to interval of C57BL/6 mice with established, syngeneic, subcutaneous KCKO mouse pancreatic tumors over a period of 10 days for SW V-49s. Erastin, SV119, a mixture of Erastin and SV119, and a vehicle control. […] Note in FIG. 7 the decrease in tumor volume from approx. 40 mm^3 to approx. 20 mm^3 in SW V 49s-treated mice, compared to an increase from approx. 40 mm^3 to approx. 140 mm^3 for other treatments.
In these experiments, in a survival study of the mice reported in Example 9, the group which received SW V-49s survived at 100% (FIG. 8). In all other groups, the mean survival clustered at around 18 days.
Animal studies were performed according to the animal studies protocol approved by Washington University Institutional Animal Care Facility. In vivo studies with mice were performed to compare the effects of SW V-49s, SV119. Erastin, a combination of SV119 with Erastin, and vehicle. The vehicle used in the in vivo studies is a mixture of 25% cremophor and 75% H2O. C57BL/6 mice (6 weeks old. National Cancer Institute Laboratories) were injected in the right flank with 200 μL single cell suspension of KCKO cells in RPMI medium (25×10^4/10^5 cells per mouse). Mice were randomized into four groups (n=15). Treatment was started when the mean tumor diameter was ^˜5 mm. Mice received daily intra peritoneal injections with 375 nmoles in 100 μL/dose of SW V-49s and vehicle for 10 days SV119. Erastin, equimolar mix of SV119 and Erastin. Tumors were measured every other day with a digital caliper. Several mice from different treatment groups were sent to the Division of Comparative Medicine in our institution for pathologic evaluation. Blood was collected for complete blood count (CBC) and biochemical analysis (AST, ALT, BUN, total bilirubin, and Cr). Organs were examined grossly and histologically.

[3] = system: PDAC patient-derived xenograft; assay: PDAC patient-derived mouse xenograft model; assay type: in vivo; conditions: daily i.p. 375 nmoles for 2 weeks
Method: SW V-49s was also tested on a PDAC patient-derived mouse xenograft model, which is more clinically relevant. Surgical PDAC specimens (2×2 mm pieces) were obtained and implanted subcutaneously into the flanks of anesthetized NOD SCID mice. Then, tumors were harvested and implanted in the right flank of Athymic female nude mice (6 weeks old. National Cancer Institute Laboratories). These mice were treated with daily i.p. injections of […] and vehicle for 14 days. Mice were randomized into 2 groups (n=15). Drug treatment was started when the mean tumors diameter was ^˜6 mm. Mice received daily intra peritoneal injections with 375 nmoles in 100 μL/mouse of SW V-49s and vehicle for 2 weeks. Tumors were measured every other day. Mice were euthanized when tumors reached a diameter of 2 cm or ulcerated.

caspase 9 = assay: CASPASE-GLO caspase 9 assay in AsPC-1 cells; assay type: cell-based, human; conditions: 4 μM, 24 hours, DMSO baseline, FIG. 12B
Method: In these experiments, caspase-3/7.8 and 9 activities were measured In AsPC-1 cells using the corresponding CASPASE-GLO® Assay according to the manufacturer's instructions (Promega, Madison. Wis.). This assay is based on a caspase-specific substrate, which is cleaved to release aminoluciferin, a substrate of luciferase that results in caspase-specific luminescence signals. Cells were seeded at a density of 2×10^4 in white 96-well, clear bottom plates for 24 hours before treatment with 4 μM of compounds. The contents were then mixed using a plate shaker for 30 seconds, thereafter incubated at room temperature for 90 minutes. Luminescence signal was measured using a multi-mode microplate reader (BioTek). Assay was performed in triplicates, and the caspase activity of DMSO was considered as a base line.
The present inventors have shown that SV119 induces caspase-3 dependent apoptosis (Kashiwagi, H., el al. Mol Cancer 2007; 6:48). In these experiments, AsPC-1 cells were treated with 4 μM of SW V-49s. SV119, Erastin, and equimolar mixture of SV119 and Erastin for 24 hours. Using CASPASE-GLO® Assays, Caspase-3 level was measured to assess the activity of SW 119 domain of the SW V-49s compound and Caspase-8 and 9 levels were measured to identify which apoptotic pathway was involved.

[4] = Table 2, individual mouse, listed as test drug
[5] = Table 3 differential, individual mouse
[6] = Table 3 differential, individual mouse, listed as test drug
[7] = Table 4, individual mouse, listed as test drug
[8] = Table 6, individual mouse (Drug 1-3), treated 10 days
[9] = Table 7, individual mouse (Drug 1-3), treated 10 days
[10] = daily i.p. 375 nmoles for 10 days

In the case of `CCOc1ccccc1-n1c(CN2CCN(C(=O)COc3ccc(CNCCCCCCN4C5CCCC4CC(OC(=O)Nc4cc(C)ccc4OC)C5)cc3)CC2)nc2ccccc2c1=O.O=C(O)C(=O)O` (centres unmarked) [SW V-49s], the WBC ([1]; Table 2, individual mouse, daily i.p. over 2 weeks, listed as test drug) is reported as 5.68 10^3/μL and 3.34 10^3/μL and 4.16 10^3/μL, the Platelets ([1]; Table 2, individual mouse, * mild platelet clumping, listed as test drug) is reported as 749* 10^3/μL and 885 10^3/μL and 611 10^3/μL and the HGB [1, 4] is reported as 10.7 g/dL and 10.5 g/dL and 9.8 g/dL. The MCH [1, 4] was 12.3 pg and 12.5 pg and 12.8 pg, the MCHC [1, 4] was 27.2% and 24.8% and 26.0% and the MCV [1, 4] was 45.3 u and 50.5 u and 49.2 u. The PCV [1, 4] was 39.3% and 42.4% and 37.7%, the RBC [1, 4] was 8.67 10^6/μL and 8.40 10^6/μL and 7.66 10^6/μL and the Bands [1, 5] was 0%. It also gave a Basophils [1, 5] of 0%, an Eosinophils [1, 5] of 0% and a Nrbe [1, 5] of 0%. For the same compound, the Lymphocytes [1, 6] was 96% and 78% and 87%, the Monocytes [1, 6] was 2% and 4% and 0% and the Neutrophils [1, 6] was 2% and 18% and 13%. The ALT [1, 7] was 138 u/L and 64 u/L and 63 u/L, the AST [1, 7] was 167 u/L and 147 u/L and 55 u/L and the BUN [1, 7] was 19 mg/dL and 22 mg/dL and 17 mg/dL. For the same compound, the Creatinine [1, 7] was 0.22 mg/dL and 0.21 mg/dL and 0.24 mg/dL, the Glucose [1, 7] was 178 mg/dL and 310 mg/dL and 180 mg/dL and the “Total Protein” value [1, 7] was 5.1 g/dL (2×) and 5.7 g/dL. For the same compound, the HGB [1, 8] was 9.8 g/dL and 10.7 g/dL and 10.5 g/dL, the MCH [1, 8] was 12.8 pg and 12.3 pg and 12.5 pg and the MCHC [1, 8] was 26.0% and 27.2% and 24.8%. For the same compound, the MCV [1, 8] was 49.2 u and 45.3 u and 50.5 u, the PCV [1, 8] was 37.7% and 39.3% and 42.4% and the Platelets [1, 8] was 611 10^3/μL and 749 10^3/μL and 885 10^3/μL. The RBC [1, 8] was 7.66 10^6/μL and 8.67 10^6/μL and 8.40 10^6/μL, the WBC [1, 8] was 4.16 10^3/μL and 5.68 10^3/μL and 3.34 10^3/μL and the ALT [1, 9] was 138 μ/L and 64 μ/L and 63 μ/L. For the same compound, the AST [1, 9] was 167 μ/L and 147 μ/L and 55 μ/L, the BUN [1, 9] was 19 mg/dL and 22 mg/dL and 17 mg/dL and the Creatinine [1, 9] was 0.22 mg/dL and 0.21 mg/dL and 0.24 mg/dL. For the same compound, the Glucose [1, 9] was 178 mg/dL and 310 mg/dL and 180 mg/dL, the “Total Protein” value [1, 9] was 5.1 g/dL (2×) and 5.7 g/dL and the “mice behavior and drug-related deaths” value [1, 10] was “no gross abnormalities in the mice behavior (grooming) or any drug-related deaths were recorded”. The “organs analyses (brain, heart, lungs, alimentary tract, kidneys, liver and pancreas), adverse drug effects” value [1, 10] was “did not reveal any obvious signs of adverse drug effects, except a mild peritonitis”, the “serum labs (CBC, AST, ALT, BUN, total bilirubin, and Cr)” value [1, 10] was “unchanged” and the “histopathologic finding in drug-treated versus control animals” value ([1]; daily i.p. over 2 weeks) was “minimal to moderate chronic peritonitis”. For the same compound, the Body weight ([1]; pre-necropsy, individual mouse, daily i.p. over 2 weeks, listed as test drug) was 21 grams and 19 grams and 22 grams, the “differences in cell counts (CBC) versus vehicle” value ([1]; treated for 10 days, Table 6) was “not statistically significant” and the “change in tumor volume” value ([2]; 10 days, p<0.05, FIG. 7) was “significant decrease in tumor volume”. For the same compound, the “effect on mean tumor volume / tumor growth” value ([2]; daily i.p. 375 nmoles for 10 days, FIG. 14A) was “capable of reducing the mean tumor volume”, the median survival ([2]; daily i.p. 375 nmoles for 10 days, Kaplan-Meier, FIG. 14B) was 48 days and the “mean tumor volume at end of treatment” value ([2]; over a period of 10 days, from approx. 40 mm^3 at start, FIG. 7) was “approx. 20 mm^3”. For the same compound, the survival ([2]; survival study, FIG. 8) was 100%, the tolerability [3] was “tolerated the treatment well without obvious off-target effects” and the “growth rate of established tumors” value ([3]; FIG. 14C) was “markedly slowed the growth rate of the established tumors”. For the same compound, the median survival ([3]; vehicle 33 days, FIG. 14D) was 58 days and the “caspase-9 fold above baseline” value (caspase 9) was 3.2 fold.
